From a compilation of properties of binary mixtures (doi:10.1021/je100671v)

Assay: xn = mol fraction of the nth substance listed
Conditions: 101.3 kPa

CCCCCCCC(=O)[O-].c1c[nH+]c[nH]1 + CC#N
viscosity [mPa·s]
Conditions | x2 = 0 | x2 = 0.1044 | x2 = 0.1986 | x2 = 0.298 | x2 = 0.4005 | x2 = 0.499 | x2 = 0.5995 | x2 = 0.6924 | x2 = 0.7988 | x2 = 0.8996
293.15 K | 88.5 | 66 | 50.42 | – | 25.96 | – | – | 5.8 | 2.747 | –
298.15 K | 71.3 | 54.3 | 41.88 | 32 | 22.7 | 16.11 | 10 | 6.3 | 3.3 | 1.199
303.15 K | – | – | 35.3 | 27.47 | 20.17 | 14.67 | – | 5.6 | 2.402 | 1.21
308.15 K | 45.3 | 37 | 30.04 | 23.68 | 17.89 | – | 8.4 | 5.5 | 2.808 | 1.241
313.15 K | 36.92 | 31.4 | 26.1 | 20.83 | 15.6 | 11.4 | 7.4 | 4.4 | 2.23 | 1.397
318.15 K | 30.56 | 26.31 | 22.3 | – | – | 10.7 | 7.51 | 5.1 | 3.1 | 1.77
323.15 K | 25.33 | 22.52 | 19.55 | 16.21 | 13.2 | – | – | 5.38 | 3.223 | 1.6

CCCCCCCC(=O)[O-].c1c[nH+]c[nH]1 + CCCCCCCCO
viscosity [mPa·s]
Conditions | x2 = 0 | x2 = 0.1011 | x2 = 0.1999 | x2 = 0.2991 | x2 = 0.4 | x2 = 0.5007 | x2 = 0.6005 | x2 = 0.6999 | x2 = 0.799 | x2 = 0.8997
293.15 K | 88.5 | 78 | 64.4 | 51.03 | – | 30.85 | – | 18 | 13.4 | 10.5
298.15 K | 71.3 | 63.2 | 52.31 | 41.9 | – | – | – | 15.39 | 11.7 | –
303.15 K | 56.48 | 50.26 | 42.2 | 34.44 | 27.5 | 21.67 | – | 13.24 | 10 | 8.33
308.15 K | 45.3 | – | 34.63 | 28.56 | 23.23 | 18.76 | 14.95 | – | 9.4 | 7.64
313.15 K | 36.92 | 33.14 | 28.5 | 23.44 | 19.4 | 15.57 | – | 9.79 | 7.5 | 5.94
318.15 K | 30.56 | – | 23.63 | 19.8 | 16.4 | 13.05 | 10.7 | 8.46 | – | –
323.15 K | 25.33 | – | 20.17 | – | 14.21 | 11.6 | 9.4 | 7.48 | 5.9 | –

CCCCCCCC(=O)[O-].c1c[nH+]c[nH]1 + CCO
viscosity [mPa·s]
Conditions | x2 = 0 | x2 = 0.1043 | x2 = 0.1984 | x2 = 0.301 | x2 = 0.4 | x2 = 0.4786 | x2 = 0.5999 | x2 = 0.7006 | x2 = 0.7999 | x2 = 0.8989
293.15 K | 88.5 | 68.7 | – | – | 29.8 | 22.9 | – | 10.32 | 6.03 | 3.236
298.15 K | 71.3 | 55.78 | 44.5 | 34 | 25.5 | 20 | 13.3 | 9.32 | 5.47 | –
303.15 K | 56.48 | – | 36.53 | 28.9 | 22.3 | 17.8 | – | 8.4 | 4.93 | –
308.15 K | 45.3 | 36.81 | 30.43 | 24.8 | 19.9 | 16.4 | 11.4 | 7.77 | 4.54 | 2.471
313.15 K | – | 31 | 26.09 | – | 17.2 | 14 | – | – | 4.19 | 2.278
318.15 K | 30.56 | 26.2 | 22.4 | 18.8 | 15.3 | 12.6 | – | 6.3 | 3.96 | –
323.15 K | 25.33 | 22.3 | 19.6 | 16.7 | 14.1 | 12 | 8.9 | 6.4 | 4.43 | –

CCCCCCCC(=O)[O-].c1c[nH+]c[nH]1 + O
viscosity [mPa·s]
Conditions | x2 = 0 | x2 = 0.0989 | x2 = 0.1964 | x2 = 0.3042 | x2 = 0.4091 | x2 = 0.5119 | x2 = 0.6017 | x2 = 0.6643 | x2 = 0.7995 | x2 = 0.8154
293.15 K | 88.5 | 67.9 | 58.6 | – | – | 45.7 | – | 34.9 | 22.18 | 20.63
298.15 K | 71.3 | 54.06 | 46.3 | 43.3 | 41.1 | – | 32.99 | 29.09 | – | 17.59
303.15 K | 56.48 | 41.7 | 36.57 | – | 33 | 30.4 | 27.23 | – | 16 | 14.75
308.15 K | 45.3 | 33.19 | 29.22 | 27.6 | 26.5 | 25 | 22.3 | 20.32 | 13.52 | 12.62
313.15 K | 36.92 | 27.32 | – | 22.8 | 21.89 | 20.82 | 18.94 | 17.17 | 11.72 | –
318.15 K | 30.56 | – | 20.39 | – | 18.6 | 17.87 | – | 14.9 | 10.4 | –
323.15 K | – | – | 17.55 | – | 16.17 | 15.72 | 14.35 | 13.4 | 9.76 | –

CC#N + c1c[nH+]c[nH]1.CCCCCCCC(=O)[O-]
x1 = 1
Conditions | viscosity [mPa·s]
293.15 K | 0.35
303.15 K | 0.325
308.15 K | 0.292
313.15 K | 0.279
318.15 K | 0.245

CCCCCCCCO + c1c[nH+]c[nH]1.CCCCCCCC(=O)[O-]
x1 = 1
Conditions | viscosity [mPa·s]
298.15 K | 7.84
303.15 K | 6.42
308.15 K | 5.34
313.15 K | 4.66
318.15 K | 3.7
323.15 K | 2.84

CCO + c1c[nH+]c[nH]1.CCCCCCCC(=O)[O-]
x1 = 1
Conditions | viscosity [mPa·s]
298.15 K | 1.1
308.15 K | 0.91
313.15 K | 0.83
318.15 K | 0.72
323.15 K | 0.615

O + c1c[nH+]c[nH]1.CCCCCCCC(=O)[O-]
x1 = 1
Conditions | viscosity [mPa·s]
298.15 K | 0.89
303.15 K | 0.797
323.15 K | 0.556
